These results are taken from article PMC4377982 (Marine Drugs, 2015).

The target in the assay is T1, human α7 nicotinic acetylcholine receptor (α7 nAChR) (Homo sapiens, UniProt P36544).
T1 construct: gene CHRNA7; human α7 nAChR transfected in GH4C1 cells
Kind of assay: radioligand competition with on GH4C1 cells; agonism also shown by Ca2+ imaging in Neuro2a cells with PNU120596 (EC50 […]). In kind it is cell-based. Background: In a radioligand displacement assay an active substance lowers the binding of a labelled ligand.

SMILES strings stand for the structures.

T1 sequence (P36544 23-502): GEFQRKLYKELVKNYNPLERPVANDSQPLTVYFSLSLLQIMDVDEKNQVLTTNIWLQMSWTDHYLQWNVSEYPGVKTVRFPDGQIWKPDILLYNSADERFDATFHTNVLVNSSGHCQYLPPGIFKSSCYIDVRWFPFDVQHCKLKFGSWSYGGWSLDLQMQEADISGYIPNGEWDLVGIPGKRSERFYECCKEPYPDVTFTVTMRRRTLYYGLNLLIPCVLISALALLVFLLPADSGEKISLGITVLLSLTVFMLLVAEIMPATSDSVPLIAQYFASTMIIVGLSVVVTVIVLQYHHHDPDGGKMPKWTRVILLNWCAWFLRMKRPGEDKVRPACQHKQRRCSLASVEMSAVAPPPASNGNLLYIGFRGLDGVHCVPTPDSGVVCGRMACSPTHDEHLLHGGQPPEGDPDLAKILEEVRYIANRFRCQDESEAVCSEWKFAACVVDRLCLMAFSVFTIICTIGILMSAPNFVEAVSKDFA

As usually defined, the IC50 is the concentration that inhibits the measured activity by half. Low values mean greater potency, high ones weaker potency. As for `C[N+](C)(C)[C@@H](Cc1c[nH]c2cc(Br)ccc12)C(=O)[O-]` [6-BHP, 6-Bromohypaphorine], the IC50 was 23 ± 1 µM.
